Patent US4443436A, “C-20-Modified macrolide derivatives of the macrolide antibiotics tylosin, desmycosin, macrocin, and lactenocin” (Eli Lilly and Company, priority 1982, dated 1984)
In brackets after ≈: the same amount, converted by molar mass. Several values for one entry are separate records, joined by “and”; a condition that tells them apart may be missing. Equal entries are not always repeated. Where two headings read alike, the source gives them in different places. Values belong to the compound of their own block, whether it stands above or below them.

How the values were obtained:
Mycoplasma hyorhinis = test: MIC, broth-dilution microtiter test, Mycoplasma hyorhinis; type: cell-based; details: Mycoplasma
Text: (§1) The MIC's in Table X were obtained using conventional broth-dilution microtiter tests.

[1] = system: Pasteurella multocida 60A; test: MIC, broth-dilution microtiter test, Pasteurella multocida 60A; type: cell-based; details: Pasteurella multocida 60A; avian isolate; broth-dilution microtiter; read-out: MIC
Text: as §1

Pasteurella multocida [2] = test: Subcutaneous treatment of Pasteurella multocida-infected chicks; type: in vivo, one-day-old chicks; details: 30 mg/kg × 2, 1 and 4 hours post-challenge
Protocol: (§2) Many of the C-20 modified derivatives of this invention have also shown in vivo antibacterial activity against infections induced by gram-negative bacteria. Tables XII and XIII summarize the results of tests in which illustrative compounds were evaluated against Pasteurella infection in one-day-old chicks. The compounds were administered parenterally or orally after challenge of the chicks with Pasteurella multocida (0.1 ml of a 10^-4 dilution of a twenty-hour tryptose broth culture of an avian P. multocida given subcutaneously). In these tests, unless indicated otherwise, all non-medicated infected chicks died within 24 hours of Pasteurella challenge. In the tests summarized in Table XII the compounds were administered by subcutaneous injection at a dosage of 30 mg/kg, 1 and 4 hours post-challenge of the chicks with P. multocida. In the test summarized in Table XIII the compounds were administered by gavage at 1 and 5 hours post-challenge of the chicks with P. multocida.

[3] = system: Staphylococcus epidermidis EPI2; test: MIC, standard agar-dilution assay, Staphylococcus epidermidis EPI2; type: cell-based; details: Staphylococcus epidermidis EPI2; agar dilution; read-out: MIC
Mycoplasma gallisepticum [4] = test: MIC, broth-dilution microtiter test, Mycoplasma gallisepticum; type: cell-based; details: Mycoplasmoides gallisepticum
Text: as §1

[5] = system: Pasteurella hemolytica 22C; test: MIC, broth-dilution microtiter test, Pasteurella hemolytica 22C; type: cell-based; details: Pasteurella hemolytica 22C; broth-dilution microtiter; read-out: MIC
Text: as §1

[6] = system: Staphylococcus epidermidis EPI1; test: MIC, standard agar-dilution assay, Staphylococcus epidermidis EPI1; type: cell-based; details: Staphylococcus epidermidis, EPI1
Mycoplasma gallisepticum [7] = test: Antimycoplasmal activity in chicks infected with Mycoplasma gallisepticum; type: in vivo, two- to three-day-old chicks; details: gavage five times, equivalent to 0.5 g/gal
Protocol: In these tests infections were induced in chicks by injecting 0.2 ml of a broth culture of M. gallisepticum into the abdominal air sac of two- to three-day-old chicks. The compounds were administered by gavage five times at a dose equivalent to 0.5 g/gal (on the day of challenge once prior to and once following the challenge, two times on the next day and once on the third day). Twenty-one days post-infection, the chicks were weighed, a blood sample was taken, and the chicks were sacrificed. The presence or absence of air-sac lesions was recorded.

[8] = system: Staphylococcus aureus S13E; test: MIC, standard agar-dilution assay, Staphylococcus aureus S13E; type: cell-based; details: Staphylococcus aureus, S13E
Streptococcus bovis 80 = test: MIC, broth-dilution microtiter test, Streptococcus bovis 80; type: cell-based; details: Streptococcus equinus, 80
Text: as §1

Mycoplasma synoviae = test: MIC, broth-dilution microtiter test, Mycoplasma synoviae; type: cell-based; details: Mycoplasmopsis synoviae
Text: as §1

Streptococcus Group 9960 = test: MIC, standard agar-dilution assay, Streptococcus Group 9960; type: cell-based; details: GROUP9960
[9] = system: Pasteurella multocida 17E; test: MIC, broth-dilution microtiter test, Pasteurella multocida 17E; type: cell-based; details: Pasteurella multocida 17E; bovine isolate; broth-dilution microtiter; read-out: MIC
Text: as §1

[10] = system: Streptococcus Group D X66; test: MIC, standard agar-dilution assay, Streptococcus Group D X66; type: cell-based
Mycoplasma hyopneumoniae = test: MIC, broth-dilution microtiter test, Mycoplasma hyopneumoniae; type: cell-based; details: Mesomycoplasma hyopneumoniae; Mycoplasma hyopneumoniae; broth-dilution microtiter; read-out: MIC
Text: as §1

[11] = system: Haemophilus influenzae Holt; test: MIC, standard agar-dilution assay, Haemophilus influenzae Holt; type: cell-based; details: Haemophilus influenzae
[12] = system: Streptococcus pneumoniae Park I; test: microbe, parasite or virus in culture; type: cell-based; details: Streptococcus pneumoniae
[13] = system: Staphylococcus aureus V41; test: MIC, standard agar-dilution assay, Staphylococcus aureus V41; type: cell-based; details: Staphylococcus aureus, V41
[14] = system: Staphylococcus aureus X1.1; test: MIC, standard agar-dilution assay, Staphylococcus aureus X1.1; type: cell-based; details: Staphylococcus aureus, X1.1
Staphylococcus aureus = test: MIC, broth-dilution microtiter test, Staphylococcus aureus; type: cell-based
Text: as §1

Pasteurella multocida [15] = test: Oral (gavage) treatment of Pasteurella multocida-infected chicks; type: in vivo, one-day-old chicks
Protocol: as §2

[16] = system: Haemophilus influenzae R252; test: MIC, standard agar-dilution assay, Haemophilus influenzae R252; type: cell-based; details: Haemophilus influenzae, R252
[17] = system: Streptococcus pyogenes C203; test: MIC, standard agar-dilution assay, Streptococcus pyogenes C203; type: cell-based; details: Streptococcus pyogenes, C203
[18] = system: Staphylococcus aureus X400; test: MIC, standard agar-dilution assay, Staphylococcus aureus X400; type: cell-based; details: Staphylococcus aureus, X400
[19] = system: Streptococcus pyogenes C203; test: In vivo protection of mice experimentally infected with S. pyogenes C203; details: Streptococcus pyogenes, mice, doses given 1 and 4 hours post-infection
Protocol: The C-20 modified derivatives of this invention have shown in vivo antimicrobial activity against experimentally-induced infections in laboratory animals. When two doses of test compound were administered to mice experimentally infected with S. pyogenes C203, the activity observed was measured as an ED50 value [effective dose in mg/kg to protect 50% of the test animals: see Warren Wick, et al., J. Bacteriol. 81, 233-235 (1961)].

in vivo = details: dog, po, 15 mg/kg

Structure (SMILES): CCC1OC(=O)CC(O)C(C)C(OC2OC(C)C(O)C(N(C)C)C2O)C(CC2Nc3ccccc3S2)CC(C)C(=O)C=CC(C)=CC1COC1OC(C)C(O)C(OC)C1OC (stereo not shown) [Compound 75]
MIC (Mycoplasma hyorhinis): 50 µg/mL (≈ 56.9 µM) | MIC [1]: 25 µg/mL (≈ 28.4 µM) | Number of Deaths/Number Treated (Pasteurella multocida [2]): 4/10 | MIC [3]: 0.12 µg/mL (≈ 0.136 µM) | MIC (Mycoplasma gallisepticum [4]): 1.56 µg/mL (≈ 1.77 µM) | MIC [5]: 25 µg/mL (≈ 28.4 µM) | MIC [6]: 0.25 µg/mL (≈ 0.284 µM) | Number with Antibodies/Number Tested (Mycoplasma gallisepticum [7]; antibodies to M. gallisepticum, 21 days post-infection): 9/9 | Mortality (Mycoplasma gallisepticum [7]): 1/10 | Number with Air-Sac Lesions/Number Treated (Mycoplasma gallisepticum [7]; 21 days post-infection): 3/10 | MIC [8]: 0.25 µg/mL (≈ 0.284 µM) | MIC (Streptococcus bovis 80): 3.12 µg/mL (≈ 3.55 µM) | MIC (Mycoplasma synoviae): 1.56 µg/mL (≈ 1.77 µM) | MIC (Streptococcus Group 9960): 2 µg/mL (≈ 2.27 µM) | MIC [9]: 25 µg/mL (≈ 28.4 µM) | MIC [10]: 2 µg/mL (≈ 2.27 µM) | MIC (Mycoplasma hyopneumoniae): 0.19 µg/mL (≈ 0.216 µM) | MIC [11]: 16 µg/mL (≈ 18.2 µM) | MIC [12]: 0.25 µg/mL (≈ 0.284 µM) | MIC [13]: 0.25 µg/mL (≈ 0.284 µM) | MIC [14]: 0.25 µg/mL (≈ 0.284 µM) | MIC (Staphylococcus aureus): 0.78 µg/mL (≈ 0.887 µM) | Number of Deaths/Number tested (Pasteurella multocida [15]; 1.0 g/gal equivalent): 6/9 | Number of Deaths/Number tested (Pasteurella multocida [15]; 2.0 g/gal equivalent): 3/9 and 4/10 | MIC [16]: 16 µg/mL (≈ 18.2 µM) | MIC [17]: 0.5 µg/mL (≈ 0.569 µM) | MIC [18]: 0.5 µg/mL (≈ 0.569 µM) | ED50 ([19]; C203, sc, subcutaneous, read-out: ED50, Subcutaneous): 1.7 mg/kg | ED50 ([19]; C203, oral, read-out: ED50, Oral): 30 mg/kg

Cmax (in vivo): 500 ng/mL
Structure (SMILES): CCC1OC(=O)CC(O)C(C)C(OC2OC(C)C(O)C(N(C)C)C2O)C(CC=O)CC(C)C(=O)C=CC(C)=CC1COC1OC(C)C(O)C(OC)C1OC (stereo not shown) [desmycosin]

Structure (SMILES): CC[C@H]1OC(=O)[C@H](C)[C@@H](O[C@H]2C[C@@](C)(OC)[C@@H](O)[C@H](C)O2)[C@H](C)[C@@H](O[C@@H]2O[C@H](C)C[C@H](N(C)C)[C@H]2O)[C@](C)(O)C[C@@H](C)C(=O)[C@H](C)[C@@H](O)[C@]1(C)O [erythromycin]
Cmax (in vivo): 1600 ng/mL
